From US20150018403A1, “FLUORENE-AMIDE COMPOUNDS AND PHARMACEUTICAL USE THEREOF” (JAPAN TOBACCO INC., priority 2013, published 2015)
pIC50: −log10 of the molar value.

Columns and labels:
[1] = Metabolic stability test in rat liver microsome; format: in vitro ADME
[2] = Metabolic stability test in human liver microsome; format: in vitro ADME; details: 37° C., 5 μM
Experimental: Human liver microsome (manufactured by Xenotech, H0620, final concentration (after dilution), 0.2 mg protein/mL) was suspended in 100 mM potassium phosphate buffer (pH 7.4, containing β-nicotinamide adenine dinucleotide phosphate: 1.3 mM, D-glucose-6-phosphate: 3.3 mM, magnesium chloride: 3.3 mM, glucose-6-phosphate dehydrogenase: 0.45 U/mL), and further mixed with a test compound dissolved in MeCN/DMSO (95/5) (final concentration 5 μM). The mixture was incubated at 37° C. for 10 min and 60 min, acetonitrile containing formic acid (final concentration 0.1%) was added, and the mixture was centrifuged. The test compound (unmodified) in the supernatant was measured by high performance liquid chromatography/mass spectrometry (LC/MS) (manufactured by Waters, LC: Acquity UPLC, MS:SQ Detector or TQ Detector). The residual ratio (%) was calculated from the obtained measurement value.

hERG = target: T1, hERG (Homo sapiens, UniProt Q12809); test: hERG whole cell patch clamp test; format: cell-based; details: human, HEK293 cells transfected with hERG, pH 7.4, read-out: hERG inhibition rate (%); for inhibition at 10 μmol/L: concentration 10 μmol/L
T1 construct: host or cells: HEK293
T1 sequence (Q12809 whole entry): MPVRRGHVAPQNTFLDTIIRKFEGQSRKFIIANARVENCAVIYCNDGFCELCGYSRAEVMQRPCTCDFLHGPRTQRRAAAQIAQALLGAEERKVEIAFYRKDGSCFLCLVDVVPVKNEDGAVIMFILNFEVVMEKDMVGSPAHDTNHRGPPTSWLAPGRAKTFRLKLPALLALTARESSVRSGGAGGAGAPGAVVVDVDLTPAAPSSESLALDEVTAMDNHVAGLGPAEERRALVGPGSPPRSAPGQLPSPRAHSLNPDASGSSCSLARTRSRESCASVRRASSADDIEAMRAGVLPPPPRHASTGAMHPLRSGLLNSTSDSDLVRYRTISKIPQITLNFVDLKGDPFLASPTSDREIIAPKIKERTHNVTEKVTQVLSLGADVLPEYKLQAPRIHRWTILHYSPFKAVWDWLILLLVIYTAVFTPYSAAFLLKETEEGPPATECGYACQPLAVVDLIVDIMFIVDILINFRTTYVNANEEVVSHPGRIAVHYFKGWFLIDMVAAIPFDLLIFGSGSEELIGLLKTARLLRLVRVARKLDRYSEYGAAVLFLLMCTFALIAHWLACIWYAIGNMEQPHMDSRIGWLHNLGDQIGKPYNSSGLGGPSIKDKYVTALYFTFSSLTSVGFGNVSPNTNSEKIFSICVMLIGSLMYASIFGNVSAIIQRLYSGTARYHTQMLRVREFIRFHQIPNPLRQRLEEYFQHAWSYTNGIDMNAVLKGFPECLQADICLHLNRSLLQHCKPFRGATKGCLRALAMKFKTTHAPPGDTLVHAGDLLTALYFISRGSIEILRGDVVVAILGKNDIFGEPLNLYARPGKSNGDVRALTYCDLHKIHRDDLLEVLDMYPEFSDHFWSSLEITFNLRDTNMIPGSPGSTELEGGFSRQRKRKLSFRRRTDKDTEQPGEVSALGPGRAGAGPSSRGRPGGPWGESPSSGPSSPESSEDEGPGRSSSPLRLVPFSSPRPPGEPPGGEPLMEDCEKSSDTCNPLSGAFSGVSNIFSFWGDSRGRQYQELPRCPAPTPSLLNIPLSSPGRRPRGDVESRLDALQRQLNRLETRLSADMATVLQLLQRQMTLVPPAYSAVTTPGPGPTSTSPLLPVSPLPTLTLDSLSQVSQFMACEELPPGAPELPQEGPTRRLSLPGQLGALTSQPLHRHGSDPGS
Experimental: (§1) Using human ether-a-go-go related gene (hERG)-transfected HEK293 cells (Cytomyx Limited), an influence on hERG current was examined according to the whole cell patch clamp technique. The hERG-transfected HEK293 cells were passaged using a CO2 incubator (BNA-111, TABAI ESPEC CORP.) under the set conditions of 37° C., 5% CO2, saturated humidity. Culture containers used were Collagen Type I Coated 75 cm^2 flask (4123-010, AGC TECHNO GLASS CO., Ltd.) and Collagen Type I Coated 35 mm culture dish (4000-010, AGC TECHNO GLASS CO., Ltd.). The culture medium used was E-MEM (Eagle Minimum Essential Medium (Earle's Salts, Nikken biomedical laboratory) added with 10% FCS (Fetal bovine serum, BioWest, L.L.C.) and 1% MEM Non-Essential Amino Acids Solution (NEAA, Invitrogen Corporation). Geneticin for the selection of hERG gene expressing cells was added thereto to a concentration of 400 μg/mL. As the cells for the measurement, 3×10^4 hERG-transfected HEK293 cells were plated on a 35 mm culture dish 4 to 7 days before measurement of the hERG current. The culture dish produced for the measurement contained the above-mentioned culture medium without geneticin (Invitrogen Corporation).
(§2) The highest evaluation concentration of each compound was determined from the highest concentration at which precipitation was not found in the standard extracellular fluid (NaCl: 140 mmol/L, KCl: 2.5 mmol/L, MgCl2: 2 mmol/L, CaCl2: 2 mmol/L, HEPES: 10 mmol/L, glucose: 10 mmol/L (adjusted to pH 7.4 with Tris-base)). As the application method, each solution to be applied was ejected from a Y-tube having a tip diameter of about 0.25 mm, which was adjacent (about 2 mm) to the cells, and applied to the cells. The ejection rate was about 0.4 mL/min.
(§3) The experiment was performed at room temperature under a phase contrast microscope. The 35 mm culture dish plated with the cells was set on a measurement apparatus, and the standard extracellular fluid was continuously applied to the cells from the Y-tube. A glass electrode for the measurement was filled with an intracellular fluid (Potassium Gluconate: 130 mmol/L, KCl: 20 mmol/L, MgCl2: 1 mmol/L, ATP-Mg: 5 mmol/L, EGTA: 3.5 mmol/L, HEPES: 10 mmol/L (adjusted to pH 7.2 with Tris-base)). A conventional whole cell patch clamp method was applied to the cells, and the maintenance electric potential was set to −80 mV. Under a fixed electric potential, the whole cell current was amplified by an amplifier for patch clamp (AXOPATCH-200B, Axon Instruments, Inc.), and the data was loaded into a computer (IMC-P642400, Intermedical Co., Ltd.) using a data acquisition analysis software (pCLAMP 9.2, Axon Instruments, Inc.).
(§4) The measurement of the hERG current was performed in the following two steps. In both cases, the hERG current was initiated by giving a command potential (maintenance electric potential −80 mV, prepulse+20 mV, 1.5 sec, test-pulse −50 mV, 1.5 sec).
(§5) Step (1): The above-mentioned command potential was given at 0.1 Hz for 2 min.
(§6) Step (2): The above-mentioned command potential was subjected to P/3 subtraction of pCLAMP 9.2 to remove leak current. This was repeated three times and an average thereof was taken as hERG current.
(§7) Subsequent to step (1), Step (2) was performed (about 3 min), and the maximum tail current obtained by applying a test-pulse to the hERG current obtained by the method of step (2) was taken as hERG current value. Hereafter, the operations of (1) and (2) were alternately repeated until completion of the experiment and the hERG current value was measured.
(§8) Stable hERG current value was recorded three times (about 10 min), and the standard extracellular fluid was instantaneously exchanged with each application fluid. The hERG current value was measured three times (about 10 min) in the same manner during perfusion of the application fluid, and the current value obtained by the 3rd measurement was taken as hERG current value after perfusion of the application fluid. […]

[3] = target: T2, hERG current (hERG-transfected HEK293 cells) (Homo sapiens, UniProt Q12809); test: hERG whole cell patch clamp test; format: cell-based; details: whole cell patch clamp, hERG-transfected HEK293 cells
T2 construct: host or cells: HEK293
T2 sequence (Q12809 whole entry): as above
Experimental: as §1, §2, §3, §4, §5, §6, §7, §8

| stability in liver microsome (residual ratio %) ([1]; 10 min) | stability in liver microsome (residual ratio %) ([1]; 60 min) | stability in liver microsome (residual ratio %) ([2]; 10 min) | stability in liver microsome (residual ratio %) ([2]; 60 min) | SMILES | inhibition at 10 μmol/L (hERG) | inhibition at 100 μmol/L (hERG; concentration 100 μmol/L) | pIC50 [3] | inhibition at 1 μmol/L (hERG; concentration 1 μmol/L) |
| --- | --- | --- | --- | --- | --- | --- | --- | --- |
| 98.3% | 98.5% | 98.9% | 97.2% | C[C@H](O)COc1cc(-c2cnn(C(C)(C)C(N)=O)c2)c2c(c1)[C@@](O)(C(F)(F)F)c1ccccc1-2 [compound (2), 2-(4-{(9R)-9-hydroxy-2-[(2S)-2-hydroxypropoxy]-9-(trifluoromethyl)-9H-fluoren-4-yl}-1H-pyrazol-1-yl)-2-methylpropanamide] | 7.5% | 62.9% | 4.23 |  |
| 101.1% | 92.1% | 98.0% | 88.2% | Cn1cc(-c2cc(OCC(C)(C)O)cc3c2-c2ccccc2[C@]3(O)C(F)(F)F)cn1 [compound (B), (9R)-2-(2-Hydroxy-2-methylpropoxy)-4-(1-methyl-1H-pyrazol-4-yl)-9-(trifluoromethyl)-9H-fluoren-9-ol, reference compound] | 72.9% |  | 5.44 | 17.4% |
